Laboratory results reported in patent publication US9409966B2, “Glucagon-like peptide-1 derivatives and their pharmaceutical use” (priority 2007, dated 2016).
Read-outs that look alike come from different tables or passages of the source. *1 amine or outer side, *2 acyl side, *3 side chain or, on linkers, in order; H or OH if unused. Where a SMILES comes first, the peptide text is derived from it. Side-chain parts run from the residue outwards. [ ]: non-standard residue; d: D form. The star is where a group is joined. X1 = O=C(CCCCCCCCCCCCCCCc1nnn[nH]1)NS(=O)(=O)CCCC(=O)*; C18 diacid = O=C(O)CCCCCCCCCCCCCCCCC(=O)*; γGlu = O=C(O)[C@H](CCC(=O)[*:2])N[*:1]; 12Ado = NCCCCCCCCCCCC(=O)O; AEEA = NCCOCCOCC(=O)O; Aib = CC(C)(N)C(=O)O

What was measured:
human GLP-1 receptor = biological target: T1, human GLP-1 receptor (Homo sapiens, UniProt P43220); test: Stimulation of cAMP formation in a cell line expressing the cloned human GLP-1 receptor; format: biochemical
T1 construct: expressed in transfected cells; host or cells: BHK467-12A (tk-ts13) baby hamster kidney cells; purified plasma membranes
T1 sequence (P43220 24-463): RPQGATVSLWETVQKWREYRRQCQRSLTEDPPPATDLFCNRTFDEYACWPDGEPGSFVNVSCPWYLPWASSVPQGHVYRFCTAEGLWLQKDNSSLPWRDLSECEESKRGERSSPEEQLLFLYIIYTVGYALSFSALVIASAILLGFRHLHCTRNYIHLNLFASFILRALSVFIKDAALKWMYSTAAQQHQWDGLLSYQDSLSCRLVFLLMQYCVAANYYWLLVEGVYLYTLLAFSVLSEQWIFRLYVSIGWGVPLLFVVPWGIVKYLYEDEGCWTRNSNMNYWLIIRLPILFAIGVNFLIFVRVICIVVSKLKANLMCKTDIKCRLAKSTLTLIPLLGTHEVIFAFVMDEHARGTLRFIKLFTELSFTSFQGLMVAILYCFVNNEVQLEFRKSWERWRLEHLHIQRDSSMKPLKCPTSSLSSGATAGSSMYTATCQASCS
Method: A stable transfected cell line has been prepared at NN A/S, Denmark, and a high expressing clone was selected for screening. The cells were grown at 5% CO2 in DMEM, 5% FCS, 1% Pen/Strep (Penicillin/Streptomycin) and 0.5 mg/ml of the selection marker G418.
Cells at approximate 80% confluence were washed 2× with PBS (Phosphate Buffered Saline) and harvested with Versene (aqueous solution of the tetrasodium salt of ethylenediaminetetraacetic acid), centrifuged 5 min at 1000 rpm and the supernatant removed. The additional steps were all made on ice. […] Suspension in Buffer 2, homogenization and centrifugation was repeated once and the membranes were resuspended in Buffer 2 and ready for further analysis or stored at −80° C.
The functional receptor assay was carried out by measuring the peptide induced cAMP production by The AlphaScreen Technology. […] The capture of cAMP is achieved by using a specific antibody conjugated to acceptor beads. Formed cAMP was counted and measured at a AlphaFusion Microplate Analyzer. The EC50 values were calculated using the Graph-Pad Prisme software (version 5).

[1] = biological target: human serum albumin (HSA) (Homo sapiens, UniProt P02768); test: Albumin binding affinity, competition scintillation proximity assay (SPA)
human serum albumin (HSA), sequence (P02768 25-609): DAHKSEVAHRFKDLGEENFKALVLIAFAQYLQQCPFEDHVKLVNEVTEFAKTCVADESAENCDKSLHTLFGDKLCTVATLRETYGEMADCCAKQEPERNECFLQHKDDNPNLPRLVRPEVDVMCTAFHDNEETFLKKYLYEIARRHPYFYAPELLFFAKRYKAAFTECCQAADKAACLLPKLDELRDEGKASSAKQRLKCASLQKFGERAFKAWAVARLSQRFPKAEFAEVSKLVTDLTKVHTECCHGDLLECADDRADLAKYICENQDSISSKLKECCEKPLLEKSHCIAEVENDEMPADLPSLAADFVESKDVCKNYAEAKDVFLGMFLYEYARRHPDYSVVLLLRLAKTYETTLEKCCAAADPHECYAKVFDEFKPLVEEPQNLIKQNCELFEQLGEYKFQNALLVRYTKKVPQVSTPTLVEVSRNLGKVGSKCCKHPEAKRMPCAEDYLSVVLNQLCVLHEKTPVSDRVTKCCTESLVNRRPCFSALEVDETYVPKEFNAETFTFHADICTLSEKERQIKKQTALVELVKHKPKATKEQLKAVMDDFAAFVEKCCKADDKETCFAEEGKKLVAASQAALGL
Method: Streptavidin-SPA beads (GE Healthcare RPNQ0009) were incubated with biotinylated HSA for 5 hours. The beads were washed with buffer to remove unbound HSA. […] After 20 hours of gentle rocking at room temperature the plates were centrifuged and counted on a TopCounter.

[2] = cAMP production, purified plasma membranes from BHK467-12A (tk-ts13), AlphaScreen cAMP Assay Kit, read-out: Potency [EC50/nM]

Structure (SMILES) | EC50 (human GLP-1 receptor; [2]) | EC50 [1] | EC50 (human GLP-1 receptor)
CC[C@H](C)[C@H](NC(=O)[C@H](Cc1ccccc1)NC(=O)[C@H](CCC(=O)O)NC(=O)[C@H](CCCNC(=N)N)NC(=O)[C@@H](NC(=O)[C@H](C)NC(=O)[C@H](CCC(N)=O)NC(=O)[C@H](CCC(=O)O)NC(=O)[C@H](CCC(=O)O)NC(=O)[C@H](CCCCN)NC(=O)[C@H](Cc1ccc(O)cc1)NC(=O)[C@H](CO)NC(=O)[C@H](CO)NC(=O)[C@@H](NC(=O)[C@H](CC(=O)O)NC(=O)[C@H](CO)NC(=O)[C@@H](NC(=O)[C@H](Cc1ccccc1)NC(=O)[C@@H](NC(=O)CNC(=O)[C@H](CCC(=O)O)NC(=O)C(C)(C)NC(=O)[C@@H](N)Cc1c[nH]cn1)[C@@H](C)O)[C@@H](C)O)C(C)C)C(C)C)C(=O)N[C@@H](C)C(=O)N[C@@H](CCCCNC(=O)COCCOCCNC(=O)COCCOCCNC(=O)CC[C@H](NC(=O)CCCCCCCCCCCCCCCCC(=O)O)C(=O)O)C(=O)N[C@@H](CC(C)C)C(=O)N[C@H](C(=O)N[C@@H](CCCNC(=N)N)C(=O)N[C@@H](CCCNC(=N)N)C(=O)N[C@@H](CCCNC(=N)N)C(=O)N[C@@H](CCCNC(=N)N)C(=O)N[C@@H](CCCNC(=N)N)C(=O)N[C@@H](CCCNC(=N)N)C(=O)N[C@@H](CCCNC(=N)N)C(=O)N[C@@H](CCCNC(=N)N)C(=O)O)C(C)C [Example 35] (H-H[Aib]EGTFTSDVSSYKEEQAVREFIAK([AEEA-AEEA-γGlu-C18 diacid])LVRRRRRRRR-OH) | 0.74 nM | 800 to 1500 nM | –
CC[C@H](C)[C@H](NC(=O)[C@H](Cc1ccccc1)NC(=O)[C@H](CCC(=O)O)NC(=O)[C@H](CCCNC(=N)N)NC(=O)[C@H](C)NC(=O)[C@H](C)NC(=O)[C@H](CCC(N)=O)NC(=O)[C@H](CCC(=O)O)NC(=O)[C@H](CCC(=O)O)NC(=O)[C@H](CC(C)C)NC(=O)[C@H](Cc1ccc(O)cc1)NC(=O)[C@H](CO)NC(=O)[C@H](CO)NC(=O)[C@@H](NC(=O)[C@H](CC(=O)O)NC(=O)[C@H](CO)NC(=O)[C@@H](NC(=O)[C@H](Cc1ccccc1)NC(=O)[C@@H](NC(=O)CNC(=O)[C@H](CCC(=O)O)NC(=O)C(C)(C)NC(=O)[C@@H](N)Cc1c[nH]cn1)[C@@H](C)O)[C@@H](C)O)C(C)C)C(=O)N[C@@H](C)C(=O)N[C@@H](Cc1c[nH]c2ccccc12)C(=O)N[C@@H](CC(C)C)C(=O)N[C@H](C(=O)N[C@@H](CCCNC(=N)N)C(=O)NCC(=O)N[C@@H](CCCNC(=N)N)C(=O)N[C@@H](CCCCNC(=O)COCCOCCNC(=O)COCCOCCNC(=O)CC[C@H](NC(=O)[C@H]1CC[C@H](CNC(=O)CCCCCCCCCCCCCCCCCCC(=O)O)CC1)C(=O)O)C(=O)O)C(C)C [Example 32, N-epsilon37-[2-(2-{2-[2-(2-{2-[(S)-4-Carboxy-4-({trans-4-[(19-carboxynonadecanoylamino)methyl]cyclohexanecarbonyl}amino)butyrylamino]ethoxy}ethoxy)acetylamino]ethoxy}ethoxy)acetyl][Aib8,Glu22,Arg26,Arg34,Lys37]GLP-1-(7-37)] | – | 1 to 100 nM | 0.46 nM
CC[C@H](C)[C@H](NC(=O)[C@H](Cc1ccccc1)NC(=O)[C@H](CCC(=O)O)NC(=O)[C@H](CCCNC(=N)N)NC(=O)[C@H](C)NC(=O)[C@H](C)NC(=O)[C@H](CCC(N)=O)NC(=O)[C@H](CCC(=O)O)NC(=O)[C@H](CCC(=O)O)NC(=O)[C@H](CCCCNC(=O)COCCOCCNC(=O)CC[C@H](NC(=O)CC[C@H](NC(=O)CCCCCCCCCCCNC(=O)CCCS(=O)(=O)NC(=O)CCCCCCCCCCCCCCCc1nnn[nH]1)C(=O)O)C(=O)O)NC(=O)[C@H](Cc1ccc(O)cc1)NC(=O)[C@H](CO)NC(=O)[C@H](CO)NC(=O)[C@@H](NC(=O)[C@H](CC(=O)O)NC(=O)[C@H](CO)NC(=O)[C@@H](NC(=O)[C@H](Cc1ccccc1)NC(=O)[C@@H](NC(=O)CNC(=O)[C@H](CCC(=O)O)NC(=O)C(C)(C)NC(=O)[C@@H](N)Cc1c[nH]cn1)[C@@H](C)O)[C@@H](C)O)C(C)C)C(=O)N[C@@H](CCC(=O)O)C(=O)N[C@@H](Cc1c[nH]c2ccccc12)C(=O)N[C@@H](CC(C)C)C(=O)N[C@H](C(=O)N[C@@H](CCCCN)C(=O)NCC(=O)N[C@@H](CCCNC(=N)N)C(=O)N1CCC[C@H]1C(N)=O)C(C)C [Example 11, N-epsilon20-[2-(2-{2-[(S)-4-Carboxy-4-((S)-4-carboxy-4-{12-[4-(16-(1H-tetrazol-5-yl)hexadecanoylsulfamoyl)butyrylamino]dodecanoylamino}butyrylamino)butyrylamino]ethoxy}ethoxy)acetyl][Aib8,Lys20,Glu22,Arg26,Glu30,Pro37]GLP-1-(7-37)amide] (H-H[Aib]EGTFTSDVSSYK([AEEA-γGlu-γGlu-12Ado-X1])EEQAAREFIEWLVKGRP-NH2) | 0.61 nM | 1 to 100 nM | –
CC[C@H](C)[C@H](NC(=O)[C@H](Cc1ccccc1)NC(=O)[C@H](CCC(=O)O)NC(=O)[C@H](CCCNC(=N)N)NC(=O)[C@H](C)NC(=O)[C@H](C)NC(=O)[C@H](CCC(N)=O)NC(=O)[C@H](CCC(=O)O)NC(=O)[C@H](CCC(=O)O)NC(=O)[C@H](CC(C)C)NC(=O)[C@H](Cc1ccc(O)cc1)NC(=O)[C@H](CO)NC(=O)[C@H](CO)NC(=O)[C@@H](NC(=O)[C@H](CC(=O)O)NC(=O)[C@H](CO)NC(=O)[C@@H](NC(=O)[C@H](Cc1ccccc1)NC(=O)[C@@H](NC(=O)CNC(=O)[C@H](CCC(=O)O)NC(=O)[C@H](C)NC(=O)CCc1c[nH]cn1)[C@@H](C)O)[C@@H](C)O)C(C)C)C(=O)N[C@@H](C)C(=O)N[C@@H](Cc1c[nH]c2ccccc12)C(=O)N[C@@H](CC(C)C)C(=O)N[C@H](C(=O)N[C@@H](CCCNC(=N)N)C(=O)NCC(=O)N[C@@H](CCCNC(=N)N)C(=O)N[C@@H](CCCCNC(=O)CCCS(=O)(=O)NC(=O)CCCCCCCCCCCCCCCc1nnn[nH]1)C(N)=O)C(C)C [Example 21, N-epsilon37-[4-(16-(1H-Tetrazol-5-yl)hexadecanoylsulfamoyl)butyryl][DesaminoHis7,Glu22,Arg26,Arg34,Lys37]GLP-1-(7-37)amide] | 1.27 nM | > 2000 nM | –

Second part, led by results:

EC50 (human GLP-1 receptor; [2]) | EC50 [1] | Structure (SMILES) | EC50 (human GLP-1 receptor)
1.35 nM | 400 to 800 nM | CC[C@H](C)[C@H](NC(=O)[C@H](Cc1ccccc1)NC(=O)[C@H](CCC(=O)O)NC(=O)[C@H](CCCNC(=N)N)NC(=O)[C@H](C)NC(=O)[C@H](C)NC(=O)[C@H](CCC(N)=O)NC(=O)[C@H](CCC(=O)O)NC(=O)[C@H](CCC(=O)O)NC(=O)[C@H](CC(C)C)NC(=O)[C@H](Cc1ccc(O)cc1)NC(=O)[C@H](CO)NC(=O)[C@H](CO)NC(=O)[C@@H](NC(=O)[C@H](CC(=O)O)NC(=O)[C@H](CO)NC(=O)[C@@H](NC(=O)[C@H](Cc1ccccc1)NC(=O)[C@@H](NC(=O)CNC(=O)[C@H](CCC(=O)O)NC(=O)[C@H](C)NC(=O)CCc1c[nH]cn1)[C@@H](C)O)[C@@H](C)O)C(C)C)C(=O)N[C@@H](C)C(=O)N[C@@H](Cc1c[nH]c2ccccc12)C(=O)N[C@@H](CC(C)C)C(=O)N[C@H](C(=O)N[C@@H](CCCNC(=N)N)C(=O)NCC(=O)N[C@@H](CCCNC(=N)N)C(=O)N[C@@H](CCCCNC(=O)COCCOCCNC(=O)COCCOCCNC(=O)CC[C@H](NC(=O)CCCCCCCCCCCCCCCCCCC(=O)O)C(=O)O)C(=O)O)C(C)C [Example 22, N-epsilon37-[2-(2-{2-[2-(2-{2-[(S)-4-Carboxy-4-(19-carboxynonadecanoylamino)butyrylamino]ethoxy}ethoxy)acetylamino]ethoxy}ethoxy)acetyl][DesaminoHis7,Glu22,Arg26,Arg34,Lys37]GLP-1-(7-37)] | –
0.58 nM | 800 to 1500 nM | CC[C@H](C)[C@H](NC(=O)[C@H](Cc1ccccc1)NC(=O)[C@H](CCC(=O)O)NC(=O)[C@H](CCCNC(=N)N)NC(=O)[C@H](C)NC(=O)[C@H](C)NC(=O)[C@H](CCC(N)=O)NC(=O)[C@H](CCC(=O)O)NC(=O)[C@H](CCC(=O)O)NC(=O)[C@H](CC(C)C)NC(=O)[C@H](Cc1ccc(O)cc1)NC(=O)[C@H](CO)NC(=O)[C@H](CO)NC(=O)[C@@H](NC(=O)[C@H](CC(=O)O)NC(=O)[C@H](CO)NC(=O)[C@@H](NC(=O)[C@H](Cc1ccccc1)NC(=O)[C@@H](NC(=O)CNC(=O)[C@H](CCC(=O)O)NC(=O)C(C)(C)NC(=O)[C@@H](N)Cc1c[nH]cn1)[C@@H](C)O)[C@@H](C)O)C(C)C)C(=O)N[C@@H](C)C(=O)N[C@@H](Cc1c[nH]c2ccccc12)C(=O)N[C@@H](CC(C)C)C(=O)N[C@H](C(=O)N[C@@H](CCCNC(=N)N)C(=O)NCC(=O)N[C@@H](CCCNC(=N)N)C(=O)N[C@@H](CCCCNC(=O)COCCOCCNC(=O)COCCOCCNC(=O)CC[C@H](NC(=O)[C@H]1CC[C@H](CNC(=O)CCCCCCCCCCCCCCCCCCC(=O)O)CC1)C(=O)O)C(N)=O)C(C)C [Example 7, N-epsilon37-[2-(2-{2-[2-(2-{2-[(S)-4-Carboxy-4-({trans-4-[(19-carboxy-nonadecanoylamino)methyl]cyclohexanecarbonyl}amino)butyrylamino]ethoxy}ethoxy)acetylamino]ethoxy}ethoxy)acetyl][Aib8,Glu22,Arg26,Arg34,Lys37]GLP-1-(7-37)amide] | –
0.5 nM | 800 to 1500 nM | CC[C@H](C)[C@H](NC(=O)[C@H](Cc1ccccc1)NC(=O)[C@H](CCC(=O)O)NC(=O)[C@H](CCCNC(=N)N)NC(=O)[C@H](C)NC(=O)[C@H](C)NC(=O)[C@H](CCC(N)=O)NC(=O)[C@H](CCC(=O)O)NC(=O)[C@H](CCC(=O)O)NC(=O)[C@H](CC(C)C)NC(=O)[C@H](Cc1ccc(O)cc1)NC(=O)[C@H](CO)NC(=O)[C@H](CO)NC(=O)[C@@H](NC(=O)[C@H](CC(=O)O)NC(=O)[C@H](CO)NC(=O)[C@@H](NC(=O)[C@H](Cc1ccccc1)NC(=O)[C@@H](NC(=O)CNC(=O)[C@H](CCC(=O)O)NC(=O)[C@H](C)NC(=O)CCc1c[nH]cn1)[C@@H](C)O)[C@@H](C)O)C(C)C)C(=O)N[C@@H](C)C(=O)N[C@@H](Cc1c[nH]c2ccccc12)C(=O)N[C@@H](CC(C)C)C(=O)N[C@H](C(=O)N[C@@H](CCCNC(=N)N)C(=O)NCC(=O)N[C@@H](CCCNC(=N)N)C(=O)N[C@@H](CCCCNC(=O)COCCOCCNC(=O)COCCOCCNC(=O)CC[C@H](NC(=O)[C@H]1CC[C@H](CNC(=O)CCCCCCCCCCCCCCCCCCC(=O)O)CC1)C(=O)O)C(=O)O)C(C)C [Example 9, N-epsilon37-[2-(2-{2-[2-(2-{2-[(S)-4-Carboxy-4-({trans-4-[(19-carboxy-nonadecanoylamino)methyl]cyclohexanecarbonyl}amino)butyrylamino]ethoxy}ethoxy)acetylamino]ethoxy}ethoxy)acetyl][DesaminoHis7,Glu22,Arg26,Arg34,Lys37]GLP-1-(7-37)] | –
